Patent publication US10413545B2, “Imidazolin-5-one derivative useful as FASN inhibitors for the treatment of cancer” (Janssen Pharmaceutica NV, priority 2013, dated 2019)
Where two headings read alike, the source gives them in different places.

Key:
Type in all cases: cell-based
[1] = system: PC-3M-Luc-C6 prostate cells; experiment: In Vitro PC-3M-Luc-C6 Prostate Cell Proliferation Assay in Lipid Reduced Medium; details: 10% lipid reduced serum, 96 h, ATP-glow luminescence; for IC50: Prostate cell, read-out: pIC50 PC-3M-Luc-C6 prostate cell (converted)
Description: PC-3M-Luc-C6 prostate cells were obtained from Xenogen Corporation. Cells were maintained in MEM supplemented with 10% Fetal Calf Serum (FCS, Hyclone), 2 mM glutamine, 1 mM sodium pyruvate, 1% BME vitamins (available from for example, Sigma Aldrich), 0.1 mM non Essential Amino Acid and 50 μg/ml Gentamicin. The cells were passaged twice a week.
(§1) The next day 10 μl test compound/DMSO diluted in medium was added (3E-5M, 1E-5M, 3E-6M,1E-6M, 3E-7M, 1E-7M, 3E-8M, 1E-8M final concentration). Compounds were tested in duplicate. After 96 h incubation at 37° C., 5% CO2 25 μl ATP-glow mix was added. The plate was incubated for 30 min at 37° C. and luminescence was measured with the Envision.
(§2) Analysis: Determination of pIC50 Values
(§3) pIC50 values were calculated as follows. Raw data generated by the instruments were normalized to % Controlmin values, which were calculated as: % Controlmin=100*(x−mLC)/(mHC−mLC),
(§4) where mLC and mHC are the means of the low control wells and high control wells on the plate, after manual exclusion of outliers. The relation between the % Controlmin values and concentration was fitted to a 4-parameter logistic curve using a non-linear least squares regression method to determine the pIC50 value. Outlying data points were excluded manually to get a correct fit. The pIC50 corresponds to −log 10(IC50), if the IC50 is expressed in molar units (http://www.ncbi.nlm.nih.qovibooks/NBK91994). The IC50 parameter was always determined by non-linear regression, but one or more of the other parameters may have been held fixed on a relevant input value, such as 0 for the bottom values.

[2] = system: LNCaP_Vancouver prostate cells; experiment: In Vitro LNCaP Vancouver Prostate Cell Proliferation Assay in Lipid Reduced Medium; details: 10% lipid reduced serum, 96 h, ATP-glow luminescence; for IC50: Prostate cell, read-out: pIC50 LNCaP_Vancouver prostate cell (converted)
Description: LNCaP_Vancouver prostate cells were obtained from the Vancouver Prostate Cancer Centre.
as §1, with “10 μl of test compound/DMSO” for “10 μl test compound/DMSO”
as §2, §3, §4

A2780 ovarian cells = experiment: A2780 Ovarian Cell Proliferation Assay in Lipid Reduced Medium, with and without Palmitate (MTT); details: Homo sapiens, 10% lipid-reduced serum, 96 h
Description: The biological assays described below correspond to comparative assays for ovarian cell proliferation.
2500 cells were seeded in a 96-well clear well plate in 200 μL RPM11640 with 10% Fetal Calf Serum (Hyclone), and incubated at 37° C., 5% CO2, Blanks were wells without cells. The next day the culture medium was aspirated and replaced by 160 μL culture medium with 10% Lipid-Reduced Serum (LRS, Hyclone). […] After 96 h incubation, an MTT assay was performed.
2500 cells were seeded in a 96-well clear well plate in 200 μL RPM11640 with 10% Fetal Calf Serum (Hyclone), and incubated at 37° C., 5% CO2. Blanks were wells without cells. The next day the culture medium was aspirated and replaced by 160 μL culture medium with 10% Lipid-Reduced Serum (LRS, Hyclone). 20 μL test compound (at concentrations of 30 μM, 10 μM, 3 μM, 1 μM, 0.30 μM, 0.10 μM, 0.03 μM and 0.01 μM)/DMSO dilution followed by 20 μL ethanol-BSA solution were added to a final concentrations of 0.2% DMSO, 0.2% fatty-acid-free BSA, 0.25% ethanol. After 96 h incubation an MTT assay was performed.
Raw data generated by the instrument were normalized to % Controlmin values, which were calculated as: % Controlmin=100*(x−mLC)/(mHC−mLC)
where mLC and mHC were the means of the low control wells and high control wells on the plate, after manual exclusion of outliers. A plot of Controlmin versus test compound concentration was fitted to a 4-parameter logistic curve using a non-linear least squares regression method.

[3] = 25 μM palmitate added (control), read-out: pIC50 With Palmitate (converted)
[4] = no palmitate, read-out: pIC50 Without Palmitate (converted)

Row | IC50 [1] | IC50 [2] | IC50 (A2780 ovarian cells; [3]) | IC50 (A2780 ovarian cells; [4]) | pIC50 PC-3M-Luc-C6 prostate cell [1] | pIC50 LNCaP_Vancouver prostate cell [2] | Structure (SMILES)
1 | 63.1 nM | 339 nM |  |  |  |  | CC1(C)N=C(c2ccc(-c3ccc4cnccc4c3)cc2F)N(CC2CN(C(=O)C3CC3)C2)C1=O [Compound 56, 1-((1-(cyclopropanecarbonyl)azetidin-3-yl)methyl)-2-(2-fluoro-4-(isoquinolin-6-yl)phenyl)-4,4-dimethyl-1H-imidazol-5(4H)-one]
2 | 1200 nM | 776 nM |  |  |  |  | CC1(C)N=C(c2ccc(-c3c[nH]c4ccccc34)cc2F)N(CC2CN(C(=O)C3CC3)C2)C1=O [Compound 62, 1-((1-(cyclopropanecarbonyl)azetidin-3-yl)methyl)-2-(2-fluoro-4-(1H-indol-3-yl)phenyl)-4,4-dimethyl-1H-imidazol-5(4H)-one]
3 |  | 5010 nM |  |  |  |  | CC1(C)N=C(c2ccc(-c3nc4ccccc4[nH]3)cc2F)N(C[C@@H]2CCN(C(=O)C3CC3)C2)C1=O [Compound 61, (R)-2-(4-(1H-benzo[d]imidazol-2-yl)-2-fluorophenyl)-1-((1-(cyclopropanecarbonyl)pyrrolidin-3-yl)methyl)-4,4-dimethyl-1H-imidazol-5(4H)-one]
4 |  | 2040 nM | 5620 nM | 468 nM |  |  | CC1(C)N=C(c2ccc(-c3ccc4cccc(F)c4c3)cc2)N(CC2CN(C(=O)C3CC3)C2)C1=O [Compound 40, 1-((1-(cyclopropanecarbonyl)azetidin-3-yl)methyl)-2-(4-(8-fluoronaphthalen-2-yl)phenyl)-4,4-dimethyl-1H-imidazol-5(4H)-one]
5 |  | 3550 nM | ~10000 nM | ~933 nM |  |  | CC1(C)N=C(c2ccc(-c3cccc4ncccc34)cc2F)N(C[C@@H]2CCN(C(=O)C3CC3)C2)C1=O [Compound 47, (R)-1-((1-(cyclopropanecarbonyl)pyrrolidin-3-yl)methyl)-2-(2-fluoro-4-(quinolin-5-yl)phenyl)-4,4-dimethyl-1H-imidazol-5(4H)-one]
6 | 64.6 nM |  | 4370 nM | 14.5 nM |  |  | Cc1cc(-c2ccc3cc(F)ccc3c2)ccc1C1=NC(C)(C)C(=O)N1CC1CN(C(=O)C2(C)CC2)C1 [Compound 82]
7 | 17 nM |  | > 10000 nM | 45.7 nM |  |  | Cc1cc(-c2ccc3c(cnn3C)c2)ccc1C1=NC(C)(C)C(=O)N1C[C@@H]1CCN(C(=O)C2(C)CC2)C1 [Compound 80, (R)-4,4-dimethyl-2-(2-methyl-4-(1-methyl-1H-indazol-5-yl)phenyl)-1-((1-(1-methylcyclopropanecarbonyl)pyrrolidin-3-yl)methyl)-1H-imidazol-5(4H)-one]
8 | 7.76 nM |  | 4370 nM | 3.31 nM |  |  | Cc1cc(-c2ccc(-c3cnn(C)c3)cc2)ccc1C1=NC(C)(C)C(=O)N1C[C@@H]1CCN(C(=O)C2(C)CC2)C1 [Compound 84]
9 | 70.8 nM |  | > 10000 nM | 123 nM |  |  | CC1(C)N=C(c2ccc(-c3ccc4cc(F)ccc4c3)cc2F)N(CC2CN(C(=O)C3(O)CC3)C2)C1=O [Compound 79, 2-(2-fluoro-4-(6-fluoronaphthalen-2-yl)phenyl)-1-((1-(1-hydroxycyclopropanecarbonyl)azetidin-3-yl)methyl)-4,4-dimethyl-1H-imidazol-5(4H)-one]
10 | 2090 nM |  | > 10000 nM | 3390 nM |  |  | CC1(C)N=C(c2ccc(-c3nc4ccccc4s3)cc2)N(C[C@@H]2CCN(C(=O)C3CC3)C2)C1=O [Compound 13, (R)-2-(4-(benzo[d]thiazol-2-yl)phenyl)-1-((1-(cyclopropanecarbonyl)pyrrolidin-3-yl)methyl)-4,4-dimethyl-1H-imidazol-5(4H)-one]
11 |  | 407 nM | 9550 nM | 52.5 nM |  |  | CC1(C)N=C(c2ccc(-c3ccc(-c4ccncc4)cc3)cc2F)N(C[C@@H]2CCN(C(=O)C3CC3)C2)C1=O [Compound 46, (R)-1-((1-(cyclopropanecarbonyl)pyrrolidin-3-yl)methyl)-2-(3-fluoro-4′-(pyridin-4-yl)-[1,1′-biphenyl]-4-yl)-4,4-dimethyl-1H-imidazol-5(4H)-one]
12 | ~10.7 nM |  | > 10000 nM | 3.89 nM |  |  | Cc1cc(-c2ccc3c(c2)ncn3C)ccc1C1=NC(C)(C)C(=O)N1C[C@@H]1CCN(C(=O)C2(C)CC2)C1 [Compound 85, (R)-4,4-dimethyl-2-(2-methyl-4-(1-methyl-1H-benzo[d]imidazol-5-yl)phenyl)-1-((1-(1-methylcyclopropanecarbonyl)pyrrolidin-3-yl)methyl)-1H-imidazol-5(4H)-one]
13 | 132 nM | 724 nM |  |  |  |  | Cn1ncc2cc(-c3ccc(C4=NC(C)(C)C(=O)N4C[C@@H]4CCN(C(=O)C5CC5)C4)c(F)c3)ccc21 [Compound 53, (R)-1-((1-(cyclopropanecarbonyl)pyrrolidin-3-yl)methyl)-2-(2-fluoro-4-(1-methyl-1H-indazol-5-yl)phenyl)-4,4-dimethyl-1H-imidazol-5(4H)-one]
14 |  | 3980 nM | > 10000 nM | 537 nM |  |  | CC1(C)N=C(c2ccc(-c3cnc4ccccc4c3)cc2F)N(C[C@@H]2CCN(C(=O)C3CC3)C2)C1=O [Compound 48, (R)-1-((1-(cyclopropanecarbonyl)pyrrolidin-3-yl)methyl)-2-(2-fluoro-4-(quinolin-3-yl)phenyl)-4,4-dimethyl-1H-imidazol-5(4H)-one]
15 | 129 nM | 407 nM |  |  |  |  | CC1(C)N=C(c2ccc(-c3ccc4cc(F)ccc4c3)cc2F)N(CC2CN(C(=O)C3CC3)C2)C1=O [Compound 54, 1-((1-(cyclopropanecarbonyl)azetidin-3-yl)methyl)-2-(2-fluoro-4-(6-fluoronaphthalen-2-yl)phenyl)-4,4-dimethyl-1H-imidazol-5(4H)-one]
16 |  | 2040 nM | > 10000 nM | 245 nM |  |  | Cn1cc(-c2ccc(-c3ccc(C4=NC(C)(C)C(=O)N4CC4CN(C(=O)C5CC5)C4)c(F)c3)cc2)cn1 [Compound 33, 1-((1-(cyclopropanecarbonyl)azetidin-3-yl)methyl)-2-(3-fluoro-4′-(1-methyl-1H-pyrazol-4-yl)-[1,1′-biphenyl]-4-yl)-4,4-dimethyl-1H-imidazol-5(4H)-one]
17 | 42.7 nM |  | > 10000 nM | 25.7 nM |  |  | Cc1cc(-c2ccc3c(c2)ncn3C)ccc1C1=NC(C)(C)C(=O)N1CC1CN(C(=O)C2(C)CC2)C1 [Compound 83, 4,4-dimethyl-2-(2-methyl-4-(1-methyl-1H-benzo[d]imidazol-5-yl)phenyl)-1-((1-(1-methylcyclopropanecarbonyl)azetidin-3-yl)methyl)-1H-imidazol-5(4H)-one]
18 |  |  |  |  | 6.06 | 5.63 | CC1(C)N=C(c2ccc(-c3ccc4cncnc4c3)cc2F)N(CC2CN(C(=O)C3CC3)C2)C1=O [Compound 43, 1-((1-(cyclopropanecarbonyl)azetidin-3-yl)methyl)-2-(2-fluoro-4-(quinazolin-7-yl)phenyl)-4,4-dimethyl-1H-imidazol-5(4H)-one]
19 | 43.7 nM | 120 nM |  |  |  |  | CC1(C)N=C(c2ccc(-c3ccc4cccc(F)c4c3)cc2F)N(CC2CN(C(=O)C3CC3)C2)C1=O [Compound 55, 1-((1-(cyclopropanecarbonyl)azetidin-3-yl)methyl)-2-(2-fluoro-4-(8-fluoronaphthalen-2-yl)phenyl)-4,4-dimethyl-1H-imidazol-5(4H)-one]
